Measurements taken from US9320722B2, “Regulators of aldehyde dehydrogenase ALDH3A1 and related therapeutic methods” (Indiana University Research and Technology Corporation, priority 2013, dated 2016).
Read-outs that look alike come from different tables or passages of the source.

Tests used:
[1] = target: ALDH2 (Homo sapiens (Human), UniProt P05091); test: ALDH2 dehydrogenase activity / IC50 determination (propionaldehyde substrate); assay type: biochemical; conditions: for inhibitory potential toward ALDH2 activity in vitro (in words): CB29 analogs
Sequence of ALDH2 (P05091 18-517): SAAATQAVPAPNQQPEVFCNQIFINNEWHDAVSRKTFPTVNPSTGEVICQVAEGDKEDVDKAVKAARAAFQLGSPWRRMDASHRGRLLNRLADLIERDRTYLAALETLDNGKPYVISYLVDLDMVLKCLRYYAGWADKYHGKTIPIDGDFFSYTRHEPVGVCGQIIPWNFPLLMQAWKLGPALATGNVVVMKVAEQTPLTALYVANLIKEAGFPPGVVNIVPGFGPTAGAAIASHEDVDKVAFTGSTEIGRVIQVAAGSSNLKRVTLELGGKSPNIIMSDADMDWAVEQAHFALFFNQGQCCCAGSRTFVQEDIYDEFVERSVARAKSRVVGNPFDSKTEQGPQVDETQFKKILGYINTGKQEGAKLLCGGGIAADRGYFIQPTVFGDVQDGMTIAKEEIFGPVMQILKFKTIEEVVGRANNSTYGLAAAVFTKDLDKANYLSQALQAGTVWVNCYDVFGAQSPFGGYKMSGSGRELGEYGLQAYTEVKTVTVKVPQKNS
Procedure: The enzymatic activity of ALDH1A1, ALDH2 and ALDH3A1 were measured as described previously^[30,34,37,39]. The specific activities of the purified proteins were 1.9, 3.8 and 32 μmole/min/mg for ALDH1A1, ALDH2 and ALDH3A1 respectively.
(§2) All reactions were initiated by the addition of the aldehyde substrate. The inhibition curves were fit to the Logistic four parameter IC50 equation using the SigmaPlot (v11, StatSys). We characterized the mode of inhibition using steady-state kinetics through co-variation of inhibitor and substrate concentrations. The steady state kinetic measurements were performed in 100 mM Na2HPO4 buffer, pH 7.5. […] In all cases—including the control reactions lacking inhibitors, the final reaction mixture contained 2% (v/v) DMSO. The reaction was initiated by addition of substrate and the initial rate of product formation was determined on a Beckman DU-640. All data were fit to the non-linear velocity expressions for competitive, non-competitive, mixed-type non-competitive and uncompetitive inhibition^[40]. Appropriateness of the inhibition model was determined through analysis of goodness-of-fit and the residuals of those fits. Lineweaver-Burke plots were created using SigmaPlot (v11, StatSys) to visualize the inhibition patterns. All data represent the average of three independent experiments utilizing triplicate assays at each concentration point.
(§3) ALDH1A1, ALDH2 and ALDH3A1 activities were measured as described earlier^33,44,45. […] Reaction was initiated by the addition of the aldehyde substrate. […] The inhibition curves were fit to the Logistic four parameter IC50 equation using the SigmaPlot (v11, StatSys). Steady state kinetic experiments were performed by co-varying inhibitor and substrate concentrations. The steady state kinetic measurements were performed in 100 mM Na2HPO4 buffer, pH 7.5.

[2] = Solubility; assay type: physicochemical; conditions: in the presence of […] DMSO
[3] = target: ALDH3A1 activity in A549 cell lysates (Homo sapiens (Human), UniProt P30838); assay type: biochemical; conditions: 50 μM CB29
Sequence of ALDH3A1 activity in A549 cell lysates (P30838 whole entry): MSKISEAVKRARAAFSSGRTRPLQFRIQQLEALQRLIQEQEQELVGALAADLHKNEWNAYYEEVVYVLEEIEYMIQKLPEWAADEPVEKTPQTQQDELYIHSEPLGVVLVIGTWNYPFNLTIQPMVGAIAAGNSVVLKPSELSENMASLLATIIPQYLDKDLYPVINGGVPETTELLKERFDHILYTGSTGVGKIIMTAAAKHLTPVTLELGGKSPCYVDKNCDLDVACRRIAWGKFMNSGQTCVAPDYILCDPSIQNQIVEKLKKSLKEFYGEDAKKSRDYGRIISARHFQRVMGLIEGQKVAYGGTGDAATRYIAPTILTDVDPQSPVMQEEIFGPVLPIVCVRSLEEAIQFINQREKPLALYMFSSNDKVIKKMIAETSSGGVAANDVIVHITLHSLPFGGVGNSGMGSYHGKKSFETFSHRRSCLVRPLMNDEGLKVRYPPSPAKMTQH
Procedure: (§4) A549, SF767 and CCD13Lu cell lysates were collected exactly the same way as described before and 50 μg of cell lysate was used in the activity assay. […] All assays contained 1% (v/v) DMSO.
(§5) Cell lysates were obtained from A549, SF767 and CCD13Lu cell lines. In summary, cells (A549, SF767 and CCD13Lu) were washed with ice cold PBS to remove residual media. 400 μL of RIPA buffer (Cell signaling technologies) containing 1 mM PMSF (Sigma Aldrich) was added to each 10 cm dish. Plates were incubated on ice for 5 minutes, scraped and lysates were collected. Lysates were centrifuged for 10 minutes at 16,000×G in a micro-centrifuge at 4° C. Protein concentrations were measured using the Bradford reagent (Biorad Laboratories). 50 μg of cell lysate was used in the activity assay. […] All assays, including the controls, contained 1% (v/v) DMSO.

[4] = test system: SF767 cells; test: MTT assay for cell proliferation / mafosfamide sensitivity, SF767; assay type: cell-based; conditions: for sensitivity to mafosfamide on co-treatment (in words), SF767: 50 μM inhibitor + […] mafosfamide; for sensitivity to mafosfamide on co-treatment (in words), SF767 / effect on cell proliferation as single agent (in words), SF767: FIG. 4B
[5] = target: ALDH1A1 (Homo sapiens (Human), UniProt P00352); test: ALDH1A1 dehydrogenase activity / IC50 determination (propionaldehyde substrate); assay type: biochemical; conditions: for inhibitory potential / activity toward ALDH1A1 in vitro (in words): CB29 analogs
Sequence of ALDH1A1 (P00352 whole entry): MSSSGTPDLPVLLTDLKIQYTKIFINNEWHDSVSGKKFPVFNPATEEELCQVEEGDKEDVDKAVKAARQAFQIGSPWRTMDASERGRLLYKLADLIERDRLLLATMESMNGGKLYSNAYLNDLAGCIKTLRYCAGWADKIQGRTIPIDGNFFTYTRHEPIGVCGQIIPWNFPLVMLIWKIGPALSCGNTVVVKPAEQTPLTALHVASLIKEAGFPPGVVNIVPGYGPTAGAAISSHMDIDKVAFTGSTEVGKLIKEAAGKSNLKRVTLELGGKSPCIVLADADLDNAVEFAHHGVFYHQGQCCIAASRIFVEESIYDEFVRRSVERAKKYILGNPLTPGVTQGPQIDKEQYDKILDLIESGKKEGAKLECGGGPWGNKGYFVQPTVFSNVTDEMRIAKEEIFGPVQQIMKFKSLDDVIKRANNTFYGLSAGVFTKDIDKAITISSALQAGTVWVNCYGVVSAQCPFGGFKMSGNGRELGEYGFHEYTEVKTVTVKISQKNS
Procedure: (§6) The enzymatic activity of ALDH1A1, ALDH2 and ALDH3A1 were measured as described previously^[30,34,37,39].
as §2, §3

[6] = target: T1, ALDH3A1 (Homo sapiens (Human), UniProt P30838); assay type: biochemical; conditions: 50 μM CB29
T1 sequence (P30838 whole entry): as the sequence (P30838 whole entry) above
Procedure: as §4, §5

[7] = target: ALDH3A1 activity in SF767 cell lysates (Homo sapiens (Human), UniProt P30838); assay type: biochemical; conditions: 50 μM CB29
Sequence of ALDH3A1 activity in SF767 cell lysates (P30838 whole entry): as above
Procedure: as §4, §5

[8] = target: T1, ALDH3A1; conditions: benzaldehyde substrate
Procedure: as §6, §2, §3

[9] = test system: A549 cells; test: MTT assay for cell proliferation / mafosfamide sensitivity, A549; assay type: cell-based; conditions: FIG. 4A; for sensitivity to mafosfamide on co-treatment (in words), A549: 50 μM inhibitor + mafosfamide; for effect on cell proliferation as single agent (in words), A549: 50 μM inhibitor
[10] = target: T1, ALDH3A1; test: biochemical
Procedure: as §6, §2, §3

[11] = test system: CCD13Lu cells; test: MTT assay for cell proliferation / mafosfamide sensitivity, CCD13Lu; assay type: cell-based; conditions: 10 μM compound + mafosfamide, FIG. 13c
[12] = target: ALDH3A1 Q122W mutant (Homo sapiens (Human), UniProt P30838, Q123W)
Sequence of ALDH3A1 Q122W mutant (P30838 whole entry Q123W): as the sequence (P30838 whole entry) above, with Q123W counted along it
Procedure: (§1) These two mutant proteins were purified exactly the same way as was ALDH3A1. […] Kinetic experiments were performed exactly the same way as the wild type (WT) enzyme.

[13] = target: ALDH3A1 Q122A mutant (Homo sapiens (Human), UniProt P30838, Q123A)
Sequence of ALDH3A1 Q122A mutant (P30838 whole entry Q123A): as the sequence (P30838 whole entry) above, with Q123A counted along it
Procedure: as §1

[14] = target: T1, ALDH3A1; assay type: biochemical; conditions: wt ALDH3A1
Procedure: as §2
Reaction was initiated by the addition of the aldehyde substrate. […] The inhibition curves were fit to the Logistic four parameter IC50 equation using the SigmaPlot (v11, StatSys). Steady state kinetic experiments were performed by co-varying inhibitor and substrate concentrations. The steady state kinetic measurements were performed in 100 mM Na2HPO4 buffer, pH 7.5.
The initial rate of product formation was determined on a Beckman DU-640. All data were fit to the non-linear velocity expressions for competitive, non-competitive, mixed-type non-competitive and uncompetitive inhibition^46. Appropriateness of the inhibition model was determined through analysis of goodness-of-fit and the residuals of those fits. Lineweaver-Burke plots were created using SigmaPlot (v11, StatSys) to visualize the inhibition patterns. All data represent the average of three independent experiments utilizing triplicate assays at each concentration point.

[15] = read-out: IC50 (micromolar) ALDH3A1, Tables 1A/1B, S.D. for three assays in parentheses

CC(=O)Nc1ccc(Nc2ccc(S(C)(=O)=O)cc2[N+](=O)[O-])cc1 [CB29, N-[4-{(4-(methylsulfonyl)-2-nitrophenyl)-4-amino}-phenyl]-acetamide]
inhibition toward ALDH2 ([1]; up to 250 μM): < 5% | concentration of homogenous solution easily formed [2]: ≥ 100 µM | decrease of ALDH3A1 activity in A549 cell lysate [3]: > 95% | ED50 value of mafosfamide in the presence of inhibitor, SF767 ([4]; 50 μM inhibitor, 146±2 μM without inhibitor): 92 ± 4 µM | inhibition toward ALDH1A1 ([5]; up to 250 μM): < 5% | decrease of activity of recombinant ALDH3A1 [6]: ~97% | decrease of ALDH3A1 activity in SF767 cell lysate [7]: > 90%

Cc1ccc(Nc2ccc(S(C)(=O)=O)cc2[N+](=O)[O-])cc1F [Compound 8]
inhibitory potential toward ALDH2 activity in vitro (in words) [1]: no inhibitory potential | concentration of homogenous solution easily formed [2]: ≥ 100 µM | IC50 [8, 15]: 10.8 µM | sensitivity to mafosfamide on co-treatment (in words), SF767 [4]: increased sensitivity to mafosfamide | effect on cell proliferation as single agent (in words), SF767 ([4]; 50 μM inhibitor): little effect on cell proliferation | inhibitory potential / activity toward ALDH1A1 in vitro (in words) [5]: no inhibitory potential | IC50 (micromolar) ALDH1A1 ([5]; Tables 1A/1B, propionaldehyde substrate, S.D. in parentheses): WA (WA represents (30-50) % activation shown by 100 μM compound to respective enzymes) | sensitivity to mafosfamide on co-treatment (in words), A549 [9]: increased sensitivity to mafosfamide | effect on cell proliferation as single agent (in words), A549 [9]: little effect on cell proliferation | IC50 [10]: 10 µM

CNS(=O)(=O)c1ccc(Nc2ccc(OC(F)F)cc2)c([N+](=O)[O-])c1 [Compound 11]
inhibitory potential toward ALDH2 activity in vitro (in words) [1]: no inhibitory potential | concentration of homogenous solution easily formed [2]: ≥ 100 µM | IC50 [8, 15]: 24.7 µM | IC50 ([8]; read-out: IC50 against ALDH3A1): 24 µM | sensitivity to mafosfamide on co-treatment (in words), SF767 [4]: increased sensitivity to mafosfamide | effect on cell proliferation as single agent (in words), SF767 ([4]; 50 μM inhibitor): little effect on cell proliferation | inhibitory potential / activity toward ALDH1A1 in vitro (in words) [5]: no inhibitory potential | sensitivity to mafosfamide on co-treatment (in words), A549 [9]: increased sensitivity to mafosfamide | effect on cell proliferation as single agent (in words), A549 [9]: little effect on cell proliferation

Cc1ccc(S(=O)(=O)n2c(C)nc3ccccc32)cc1 [Compound A10]
chemosensitivity to mafosfamide (in words), SF767 ([4]; 10 μM inhibitor + mafosfamide): significantly increased chemosensitivity | effect with mafosfamide (in words), CCD13Lu [11]: decreased cell proliferation

CCC=O [Propionaldehyde]
Propionaldehyde Kcat/Km [12]: 650 ± 83 M⁻¹ s⁻¹ | Propionaldehyde Kcat/Km ([12]; listed as propionaldehyde): 650 M⁻¹ s⁻¹ | Km ([12]; read-out: Propionaldehyde Km): 5.36 ± 0.59 mM | Propionaldehyde Kcat/Km [13]: 817 ± 50 M⁻¹ s⁻¹ | Propionaldehyde Kcat/Km ([13]; listed as propionaldehyde): 817 M⁻¹ s⁻¹ | Km ([13]; read-out: Propionaldehyde Km): 23.9 ± 1.99 mM | Propionaldehyde Kcat/Km [14]: 830 ± 50 M⁻¹ s⁻¹ | Propionaldehyde Kcat/Km ([14]; listed as propionaldehyde): 830 M⁻¹ s⁻¹ | Km ([14]; read-out: Propionaldehyde Km): 20.5 ± 0.272 mM
